Literature values in patent publication US9427470B2, “Hyaluronic acid stabilizer” (priority 2012, dated 2016).

Target: CD44 (Homo sapiens, UniProt P16070)
Conditions: Aruffo, et al., 1990

CD44, sequence (P16070 21-742, species assumed): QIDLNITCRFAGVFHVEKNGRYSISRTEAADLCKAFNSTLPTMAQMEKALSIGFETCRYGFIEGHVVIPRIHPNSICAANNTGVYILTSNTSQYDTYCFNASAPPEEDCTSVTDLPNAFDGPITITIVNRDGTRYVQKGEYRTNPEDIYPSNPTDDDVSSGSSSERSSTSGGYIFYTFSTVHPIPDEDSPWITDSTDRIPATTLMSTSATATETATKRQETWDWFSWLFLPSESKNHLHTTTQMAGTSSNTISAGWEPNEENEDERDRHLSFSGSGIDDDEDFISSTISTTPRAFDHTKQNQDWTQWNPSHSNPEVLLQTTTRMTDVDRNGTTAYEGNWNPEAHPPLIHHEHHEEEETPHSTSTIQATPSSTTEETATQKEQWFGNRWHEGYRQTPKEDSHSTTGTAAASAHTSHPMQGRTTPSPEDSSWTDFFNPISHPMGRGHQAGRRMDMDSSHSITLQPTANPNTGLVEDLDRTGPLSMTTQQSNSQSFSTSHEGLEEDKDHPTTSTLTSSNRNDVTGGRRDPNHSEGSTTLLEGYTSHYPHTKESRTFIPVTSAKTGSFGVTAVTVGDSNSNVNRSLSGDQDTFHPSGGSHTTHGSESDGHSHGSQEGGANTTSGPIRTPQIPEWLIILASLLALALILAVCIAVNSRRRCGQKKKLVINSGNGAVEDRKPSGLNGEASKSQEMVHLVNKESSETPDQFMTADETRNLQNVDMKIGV

strength of bond to CD44 relative to chondroitin sulfate: about 100 times
Substance: Hyaluronic acid [HA]
